According to the kinase profiling compilation of Christmann-Franck et al. (2016):

Tests used:
Assay in all cases: radiometric filter-binding kinase assay, Kinase HotSpot
Settings in all cases: compound 0.5 µM; ATP 10 µM
ACVRL1 (human) = ACVRL1 (human) (UniProt P37023)
AKT1 (human) = AKT1 (human) (UniProt P31749)
BLK (human) = BLK (human) (UniProt P51451)
BRSK1 (human) = BRSK1 (human) (UniProt Q8TDC3)
BRSK2 (human) = BRSK2 (human) (UniProt Q8IWQ3)
CAMKK2 (human) = CAMKK2 (human) (UniProt Q96RR4)
CDC42BPA (human) = CDC42BPA (human) (UniProt Q5VT25)
CDK2 CCNA2 (human) = CDK2 CCNA2 (human) (UniProt P24941+P20248)
CDK5 CDK5R1 p35 (human) = CDK5 CDK5R1 p35 (human) (UniProt Q00535+Q15078)
CLK2 (human) = CLK2 (human) (UniProt P49760)
Sequence of CLK2 (human) (P49760 whole entry, looked up): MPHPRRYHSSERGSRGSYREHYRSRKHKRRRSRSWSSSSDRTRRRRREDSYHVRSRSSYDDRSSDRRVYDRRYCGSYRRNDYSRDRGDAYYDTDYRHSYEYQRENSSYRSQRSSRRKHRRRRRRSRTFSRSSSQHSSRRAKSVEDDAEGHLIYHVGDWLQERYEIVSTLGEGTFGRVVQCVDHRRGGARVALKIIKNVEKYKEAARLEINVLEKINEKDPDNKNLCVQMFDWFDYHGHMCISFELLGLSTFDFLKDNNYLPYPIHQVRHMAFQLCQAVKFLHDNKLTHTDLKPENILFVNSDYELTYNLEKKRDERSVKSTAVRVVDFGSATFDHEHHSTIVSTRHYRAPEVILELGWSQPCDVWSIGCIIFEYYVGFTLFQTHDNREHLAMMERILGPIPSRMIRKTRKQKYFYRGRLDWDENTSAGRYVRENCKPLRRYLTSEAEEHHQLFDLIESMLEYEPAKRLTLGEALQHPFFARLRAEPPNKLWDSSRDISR

CSF1R (human) = CSF1R (human) (UniProt P07333)
DCLK2 (human) = DCLK2 (human) (UniProt Q8N568)
DSTYK (human) = DSTYK (human) (UniProt Q6XUX3)
EPHA1 (human) = EPHA1 (human) (UniProt P21709)
EPHB2 (human) = EPHB2 (human) (UniProt P29323)
EPHB3 (human) = EPHB3 (human) (UniProt P54753)
FGFR3 (human) = FGFR3 (human) (UniProt P22607)
FRK (human) = FRK (human) (UniProt P42685)
Sequence of FRK (human) (P42685 whole entry, looked up): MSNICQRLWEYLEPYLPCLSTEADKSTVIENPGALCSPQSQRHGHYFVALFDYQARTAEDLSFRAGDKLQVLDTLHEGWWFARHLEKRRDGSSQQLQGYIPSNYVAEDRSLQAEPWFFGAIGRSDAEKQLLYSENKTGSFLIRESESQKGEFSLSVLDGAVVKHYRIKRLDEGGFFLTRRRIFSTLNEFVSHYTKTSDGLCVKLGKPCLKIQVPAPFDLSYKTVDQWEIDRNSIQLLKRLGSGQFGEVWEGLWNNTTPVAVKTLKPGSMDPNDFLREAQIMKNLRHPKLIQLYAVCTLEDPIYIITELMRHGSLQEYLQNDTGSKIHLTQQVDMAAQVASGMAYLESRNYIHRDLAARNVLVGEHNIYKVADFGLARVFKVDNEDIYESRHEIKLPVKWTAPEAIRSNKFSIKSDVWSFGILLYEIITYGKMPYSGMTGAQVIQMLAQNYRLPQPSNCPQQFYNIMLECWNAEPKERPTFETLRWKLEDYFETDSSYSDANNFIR

GSK3A (human) = GSK3A (human) (UniProt P49840)
Sequence of GSK3A (human) (P49840 whole entry, looked up): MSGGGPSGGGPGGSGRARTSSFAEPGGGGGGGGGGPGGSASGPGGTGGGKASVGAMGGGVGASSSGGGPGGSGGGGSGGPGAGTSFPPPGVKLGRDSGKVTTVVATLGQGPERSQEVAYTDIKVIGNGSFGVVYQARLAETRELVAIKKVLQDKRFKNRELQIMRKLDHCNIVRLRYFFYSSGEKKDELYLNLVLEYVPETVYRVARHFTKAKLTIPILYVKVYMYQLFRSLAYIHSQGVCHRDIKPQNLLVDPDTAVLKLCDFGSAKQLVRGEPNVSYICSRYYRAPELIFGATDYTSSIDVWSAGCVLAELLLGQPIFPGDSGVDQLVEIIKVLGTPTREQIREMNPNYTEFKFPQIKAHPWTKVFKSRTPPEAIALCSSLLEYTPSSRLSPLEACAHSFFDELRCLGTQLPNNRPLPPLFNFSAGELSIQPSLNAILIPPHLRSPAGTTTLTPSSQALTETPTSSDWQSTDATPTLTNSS

INSRR (human) = INSRR (human) (UniProt P14616)
LRRK2 (human) = LRRK2 (human) (UniProt Q5S007)
LTK (human) = LTK (human) (UniProt P29376)
MAP2K1 (human) = MAP2K1 (human) (UniProt Q02750)
Sequence of MAP2K1 (human) (Q02750 whole entry, looked up): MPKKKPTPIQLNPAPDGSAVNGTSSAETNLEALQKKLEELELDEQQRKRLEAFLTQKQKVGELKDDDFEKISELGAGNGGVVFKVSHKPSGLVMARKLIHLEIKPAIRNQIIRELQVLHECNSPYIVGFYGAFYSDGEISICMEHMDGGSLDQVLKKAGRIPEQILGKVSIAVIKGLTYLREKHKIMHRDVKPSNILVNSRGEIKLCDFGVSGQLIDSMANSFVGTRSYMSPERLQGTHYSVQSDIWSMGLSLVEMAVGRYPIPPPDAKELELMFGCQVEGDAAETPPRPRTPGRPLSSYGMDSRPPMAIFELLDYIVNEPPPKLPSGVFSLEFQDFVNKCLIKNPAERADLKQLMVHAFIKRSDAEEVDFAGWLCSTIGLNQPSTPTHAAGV

MAP2K2 (human) = MAP2K2 (human) (UniProt P36507)
MAP3K10 (human) = MAP3K10 (human) (UniProt Q02779)
MAP4K2 (human) = MAP4K2 (human) (UniProt Q12851)
MAPK13 (human) = MAPK13 (human) (UniProt O15264)
Sequence of MAPK13 (human) (O15264 whole entry, looked up): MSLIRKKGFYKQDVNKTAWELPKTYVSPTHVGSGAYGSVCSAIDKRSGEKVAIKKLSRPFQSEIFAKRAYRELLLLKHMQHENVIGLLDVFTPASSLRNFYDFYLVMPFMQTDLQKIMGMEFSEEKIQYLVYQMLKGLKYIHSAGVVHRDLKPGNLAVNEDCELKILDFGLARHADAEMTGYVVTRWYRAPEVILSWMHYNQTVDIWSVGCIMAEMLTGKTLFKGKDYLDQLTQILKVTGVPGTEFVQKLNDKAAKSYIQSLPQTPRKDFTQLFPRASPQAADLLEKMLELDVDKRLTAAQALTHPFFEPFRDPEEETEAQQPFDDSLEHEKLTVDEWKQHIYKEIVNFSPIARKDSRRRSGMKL

MAPKAPK3 (human) = MAPKAPK3 (human) (UniProt Q16644)
Sequence of MAPKAPK3 (human) (Q16644 whole entry, looked up): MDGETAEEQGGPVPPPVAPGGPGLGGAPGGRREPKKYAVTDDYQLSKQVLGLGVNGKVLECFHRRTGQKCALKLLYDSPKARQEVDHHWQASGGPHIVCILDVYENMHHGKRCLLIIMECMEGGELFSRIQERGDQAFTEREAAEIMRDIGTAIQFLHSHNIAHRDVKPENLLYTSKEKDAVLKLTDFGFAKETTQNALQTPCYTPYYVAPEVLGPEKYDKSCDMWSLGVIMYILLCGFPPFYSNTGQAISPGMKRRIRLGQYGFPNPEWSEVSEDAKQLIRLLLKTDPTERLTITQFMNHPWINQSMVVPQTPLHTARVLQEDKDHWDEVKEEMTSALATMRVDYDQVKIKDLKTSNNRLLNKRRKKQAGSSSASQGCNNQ

MARK3 (human) = MARK3 (human) (UniProt P27448)
MYLK2 (human) = MYLK2 (human) (UniProt Q9H1R3)
Sequence of MYLK2 (human) (Q9H1R3 whole entry, looked up): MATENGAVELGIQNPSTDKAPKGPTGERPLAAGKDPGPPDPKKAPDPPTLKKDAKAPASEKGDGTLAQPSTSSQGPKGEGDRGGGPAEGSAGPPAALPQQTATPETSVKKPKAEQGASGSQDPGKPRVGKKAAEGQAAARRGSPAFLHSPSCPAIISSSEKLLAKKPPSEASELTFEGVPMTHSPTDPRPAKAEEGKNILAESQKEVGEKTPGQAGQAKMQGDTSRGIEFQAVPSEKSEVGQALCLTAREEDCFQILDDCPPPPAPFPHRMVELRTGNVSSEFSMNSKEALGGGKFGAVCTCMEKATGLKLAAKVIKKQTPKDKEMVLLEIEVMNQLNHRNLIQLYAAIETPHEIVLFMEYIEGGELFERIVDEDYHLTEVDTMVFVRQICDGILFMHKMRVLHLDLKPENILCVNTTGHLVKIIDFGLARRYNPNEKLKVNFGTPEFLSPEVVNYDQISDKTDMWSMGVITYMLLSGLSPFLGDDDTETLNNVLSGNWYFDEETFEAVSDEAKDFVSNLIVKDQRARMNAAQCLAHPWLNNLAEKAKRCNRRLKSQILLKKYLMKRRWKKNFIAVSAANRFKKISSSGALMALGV

NEK9 (human) = NEK9 (human) (UniProt Q8TD19)
PAK6 (human) = PAK6 (human) (UniProt Q9NQU5)
PASK (human) = PASK (human) (UniProt Q96RG2)
PHKG1 (human) = PHKG1 (human) (UniProt Q16816)
PIM2 (human) = PIM2 (human) (UniProt Q9P1W9)
Sequence of PIM2 (human) (Q9P1W9 whole entry, looked up): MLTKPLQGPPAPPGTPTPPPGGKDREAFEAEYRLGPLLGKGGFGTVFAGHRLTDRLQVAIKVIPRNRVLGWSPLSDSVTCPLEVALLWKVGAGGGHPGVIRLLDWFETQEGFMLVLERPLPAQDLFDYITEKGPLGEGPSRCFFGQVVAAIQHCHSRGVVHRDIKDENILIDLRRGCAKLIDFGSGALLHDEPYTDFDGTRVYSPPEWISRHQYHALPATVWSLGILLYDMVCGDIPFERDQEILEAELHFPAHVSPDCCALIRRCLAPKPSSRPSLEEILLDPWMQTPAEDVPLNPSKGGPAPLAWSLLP

PRKACA (human) = PRKACA (human) (UniProt P17612)
RPS6KA1 KD1 KD2 (human) = RPS6KA1 KD1 KD2 (human) (UniProt Q15418)
RPS6KA3 KD1 KD2 (human) = RPS6KA3 KD1 KD2 (human) (UniProt P51812)
STK16 (human) = STK16 (human) (UniProt O75716)
Sequence of STK16 (human) (O75716 whole entry, looked up): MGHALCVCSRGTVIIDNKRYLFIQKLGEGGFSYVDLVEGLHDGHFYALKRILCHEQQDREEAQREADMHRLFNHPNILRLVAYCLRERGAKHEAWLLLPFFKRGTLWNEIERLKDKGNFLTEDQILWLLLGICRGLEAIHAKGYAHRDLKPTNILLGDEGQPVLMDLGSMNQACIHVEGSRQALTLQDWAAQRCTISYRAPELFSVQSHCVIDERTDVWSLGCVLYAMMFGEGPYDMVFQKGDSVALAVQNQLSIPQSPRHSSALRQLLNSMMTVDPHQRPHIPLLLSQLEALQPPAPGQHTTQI

ULK1 (human) = ULK1 (human) (UniProt O75385)
ULK2 (human) = ULK2 (human) (UniProt Q8IYT8)

Sequence of BRSK1 (human) (Q8TDC3 whole entry, looked up): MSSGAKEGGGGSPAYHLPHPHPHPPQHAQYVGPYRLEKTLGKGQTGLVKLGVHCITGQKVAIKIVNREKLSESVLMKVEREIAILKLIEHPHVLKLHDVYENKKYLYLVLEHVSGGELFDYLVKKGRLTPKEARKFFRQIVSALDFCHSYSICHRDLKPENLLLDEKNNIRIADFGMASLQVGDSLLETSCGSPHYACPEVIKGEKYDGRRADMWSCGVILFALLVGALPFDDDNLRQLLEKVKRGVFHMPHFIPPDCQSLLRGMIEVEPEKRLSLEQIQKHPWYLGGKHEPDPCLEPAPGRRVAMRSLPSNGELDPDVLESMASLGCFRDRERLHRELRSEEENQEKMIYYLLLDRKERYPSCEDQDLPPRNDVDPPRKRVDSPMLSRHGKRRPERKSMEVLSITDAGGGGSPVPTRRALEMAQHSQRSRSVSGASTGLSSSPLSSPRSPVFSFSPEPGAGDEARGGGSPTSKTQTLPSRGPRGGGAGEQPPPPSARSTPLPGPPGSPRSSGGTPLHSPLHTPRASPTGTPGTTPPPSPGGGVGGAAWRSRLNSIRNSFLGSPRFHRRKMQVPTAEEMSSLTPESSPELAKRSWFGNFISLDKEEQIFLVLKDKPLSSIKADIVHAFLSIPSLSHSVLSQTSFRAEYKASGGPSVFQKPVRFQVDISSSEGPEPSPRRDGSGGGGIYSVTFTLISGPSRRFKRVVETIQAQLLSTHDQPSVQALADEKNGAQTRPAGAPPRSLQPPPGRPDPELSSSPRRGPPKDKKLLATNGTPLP

COc1ccc2c(c[n+](C)c3c4cc5c(cc4ccc23)OCO5)c1OC
residual activity (ACVRL1 (human)): 99.2%
residual activity (AKT1 (human)): 97.6%
residual activity (BLK (human)): 98.7%
residual activity (BRSK1 (human)): 90.8%
residual activity (BRSK2 (human)): 97%
residual activity (CAMKK2 (human)): 98.2%
residual activity (CDC42BPA (human)): 84.8%
residual activity (CDK2 CCNA2 (human)): 85.1%
residual activity (CDK5 CDK5R1 p35 (human)): 95.7%
residual activity (CLK2 (human)): 90.6%
residual activity (CSF1R (human)): 99%
residual activity (DCLK2 (human)): 96%
residual activity (DSTYK (human)): 86.4%
residual activity (EPHA1 (human)): 98.3%
residual activity (EPHB2 (human)): 97.1%
residual activity (EPHB3 (human)): 95.4%
residual activity (FGFR3 (human)): 99.1%
residual activity (FRK (human)): 89.3%
residual activity (GSK3A (human)): 105%
residual activity (INSRR (human)): 91.8%
residual activity (LRRK2 (human)): 104%
residual activity (LTK (human)): 95.9%
residual activity (MAP2K1 (human)): 97.8%
residual activity (MAP2K2 (human)): 95.6%
residual activity (MAP3K10 (human)): 91.7%
residual activity (MAP4K2 (human)): 96.1%
residual activity (MAPK13 (human)): 97.3%
residual activity (MAPKAPK3 (human)): 83%
residual activity (MARK3 (human)): 98.7%
residual activity (MYLK2 (human)): 95.3%
residual activity (NEK9 (human)): 97%
residual activity (PAK6 (human)): 96.1%
residual activity (PASK (human)): 91.1%
residual activity (PHKG1 (human)): 90.4%
residual activity (PIM2 (human)): 105%
residual activity (PRKACA (human)): 100%
residual activity (RPS6KA1 KD1 KD2 (human)): 104%
residual activity (RPS6KA3 KD1 KD2 (human)): 94.6%
residual activity (STK16 (human)): 102%
residual activity (ULK1 (human)): 109%
residual activity (ULK2 (human)): 92%

Cc1ccc(S(=O)(=O)/C=C/C#N)cc1
residual activity (ACVRL1 (human)): 100%
residual activity (AKT1 (human)): 112%
residual activity (BLK (human)): 103%
residual activity (BRSK1 (human)): 97.2%
residual activity (BRSK2 (human)): 99.4%
residual activity (CAMKK2 (human)): 102%
residual activity (CDC42BPA (human)): 96.4%
residual activity (CDK2 CCNA2 (human)): 98%
residual activity (CDK5 CDK5R1 p35 (human)): 97%
residual activity (CLK2 (human)): 103%
residual activity (CSF1R (human)): 93.6%
residual activity (DCLK2 (human)): 96.1%
residual activity (DSTYK (human)): 97.8%
residual activity (EPHA1 (human)): 93.2%
residual activity (EPHB2 (human)): 104%
residual activity (EPHB3 (human)): 104%
residual activity (FGFR3 (human)): 95.2%
residual activity (FRK (human)): 91.6%
residual activity (GSK3A (human)): 106%
residual activity (INSRR (human)): 98%
residual activity (LRRK2 (human)): 115%
residual activity (LTK (human)): 114%
residual activity (MAP2K1 (human)): 93.9%
residual activity (MAP2K2 (human)): 91%
residual activity (MAP3K10 (human)): 105%
residual activity (MAP4K2 (human)): 130%
residual activity (MAPK13 (human)): 92.2%
residual activity (MAPKAPK3 (human)): 97.8%
residual activity (MARK3 (human)): 100%
residual activity (MYLK2 (human)): 105%
residual activity (NEK9 (human)): 95.6%
residual activity (PAK6 (human)): 107%
residual activity (PASK (human)): 99.3%
residual activity (PHKG1 (human)): 95.8%
residual activity (PIM2 (human)): 103%
residual activity (PRKACA (human)): 100%
residual activity (RPS6KA1 KD1 KD2 (human)): 91.6%
residual activity (RPS6KA3 KD1 KD2 (human)): 95.9%
residual activity (STK16 (human)): 88.3%
residual activity (ULK1 (human)): 102%
residual activity (ULK2 (human)): 110%

Nc1cccc(-c2cc3c(Oc4cccc(O)c4)ncnc3[nH]2)c1
residual activity (ACVRL1 (human)): 70.3%
residual activity (AKT1 (human)): 92.5%
residual activity (BLK (human)): 38.1%
residual activity (BRSK1 (human)): 83.1%
residual activity (BRSK2 (human)): 86.9%
residual activity (CAMKK2 (human)): 95.9%
residual activity (CDC42BPA (human)): 87.7%
residual activity (CDK2 CCNA2 (human)): 88.5%
residual activity (CDK5 CDK5R1 p35 (human)): 72.2%
residual activity (CLK2 (human)): 98.8%
residual activity (CSF1R (human)): 13.6%
residual activity (DCLK2 (human)): 89%
residual activity (DSTYK (human)): 83.4%
residual activity (EPHA1 (human)): 31.2%
residual activity (EPHB2 (human)): 40.7%
residual activity (EPHB3 (human)): 78.8%
residual activity (FGFR3 (human)): 67.9%
residual activity (FRK (human)): 6.95%
residual activity (GSK3A (human)): 41.6%
residual activity (INSRR (human)): 96.3%
residual activity (LRRK2 (human)): 93.4%
residual activity (LTK (human)): 16.8%
residual activity (MAP2K1 (human)): 76.3%
residual activity (MAP2K2 (human)): 104%
residual activity (MAP3K10 (human)): 79.2%
residual activity (MAP4K2 (human)): 55.5%
residual activity (MAPK13 (human)): 104%
residual activity (MAPKAPK3 (human)): 97.6%
residual activity (MARK3 (human)): 77.5%
residual activity (MYLK2 (human)): 29.9%
residual activity (NEK9 (human)): 103%
residual activity (PAK6 (human)): 109%
residual activity (PASK (human)): 96.2%
residual activity (PHKG1 (human)): 81.5%
residual activity (PIM2 (human)): 108%
residual activity (PRKACA (human)): 92.3%
residual activity (RPS6KA1 KD1 KD2 (human)): 105%
residual activity (RPS6KA3 KD1 KD2 (human)): 96.9%
residual activity (STK16 (human)): 70.4%
residual activity (ULK1 (human)): 143%
residual activity (ULK2 (human)): 97.5%
